Experimental data taken from ChEMBL document CHEMBL5241130, “Integrating a phenotypic screening with a structural simplification strategy to identify 4-phenoxy-quinoline derivatives to potently disrupt the mitotic localization of Aurora kinase B” (Bioorg Med Chem, 2023).

What was measured:
Format in all cases: cell-based
[1] = target: Aurora kinase B (Homo sapiens) (UniProt Q96GD4); test: Disruption of mitotic localization of AURKB in human RPE-MYC H2B-GFP cells assessed as mitotic index at 20 uM measured after 6 hrs by fluorescence high content cell imaging analysis (reference value: 4.7+/-0.4%)
[2] = target: T1, Aurora kinase A (Homo sapiens) (UniProt O14965); test: Inhibition of AURKA in human RPE-MYC H2B-GFP cells assessed as inhibition of autophosphorylation of AURKA at Thr288 residue by measuring residual enzyme activity at 40 uM measured after 6 hrs by immunofluorescence staining analysis (reference value: 100+/-1%)
T1 sequence (whole entry): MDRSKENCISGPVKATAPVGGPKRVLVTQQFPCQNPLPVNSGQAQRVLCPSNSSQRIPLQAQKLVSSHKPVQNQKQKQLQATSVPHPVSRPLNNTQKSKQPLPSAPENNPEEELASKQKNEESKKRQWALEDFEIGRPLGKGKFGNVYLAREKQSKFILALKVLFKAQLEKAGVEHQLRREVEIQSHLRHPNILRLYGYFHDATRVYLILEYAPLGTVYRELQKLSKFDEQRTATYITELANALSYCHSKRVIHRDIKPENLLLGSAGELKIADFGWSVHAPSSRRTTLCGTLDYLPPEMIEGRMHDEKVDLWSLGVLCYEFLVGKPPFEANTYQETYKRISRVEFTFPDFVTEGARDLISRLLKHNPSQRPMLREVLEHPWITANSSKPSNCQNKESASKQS

[3] = target: Aurora kinase B (Homo sapiens) (UniProt Q96GD4); test: Inhibition of AURKB in human RPE-MYC H2B-GFP cells assessed as inhibition of histone H3 phosphorylation at Ser10 residue by measuring residual enzyme activity at 20 uM measured after 6 hrs by immunofluorescence staining analysis (reference value: 100 +/-9%)
[4] = target: Aurora kinase B (Homo sapiens) (UniProt Q96GD4); test: Disruption of mitotic localization of AURKB in human RPE-MYC H2B-GFP cells assessed as mitotic index at 40 uM measured after 6 hrs by fluorescence high content cell imaging analysis (reference value: 4.7+/-0.4%)
[5] = target: Aurora kinase B (Homo sapiens) (UniProt Q96GD4); test: Disruption of mitotic localization of AURKB in human RPE-MYC H2B-GFP cells assessed as mitotic index at 10 uM measured after 6 hrs by fluorescence high content cell imaging analysis (reference value: 4.7+/-0.4%)
[6] = target: Aurora kinase B (Homo sapiens) (UniProt Q96GD4); test: Inhibition of AURKB in human RPE-MYC H2B-GFP cells assessed as inhibition of histone H3 phosphorylation at Ser10 residue by measuring residual enzyme activity at 10 uM measured after 6 hrs by immunofluorescence staining analysis (reference value: 100 +/-9%)
[7] = target: Aurora kinase B (Homo sapiens) (UniProt Q96GD4); test: Inhibition of AURKB in human RPE-MYC H2B-GFP cells assessed as inhibition of histone H3 phosphorylation at Ser10 residue by measuring residual enzyme activity at 40 uM measured after 6 hrs by immunofluorescence staining analysis (reference value: 100 +/-9%)
[8] = target: Aurora kinase B (Homo sapiens) (UniProt Q96GD4); test: Disruption of mitotic localization of AURKB in human RPE-MYC H2B-GFP cells assessed as induction of polyploidy by fluorescence high content cell imaging analysis
[9] = target: T1, Aurora kinase A (Homo sapiens); test: Inhibition of AURKA in human RPE-MYC H2B-GFP cells assessed as inhibition of autophosphorylation of AURKA at Thr288 residue by measuring residual enzyme activity at 10 uM measured after 6 hrs by immunofluorescence staining analysis (reference value: 100 +/-1%)
[10] = target: Aurora kinase B (Homo sapiens) (UniProt Q96GD4); test: Disruption of mitotic localization of AURKB in human RPE-MYC H2B-GFP cells assessed as induction of mitotic arrest measured after 24 hrs by fluorescence high content cell imaging analysis
[11] = target: Aurora kinase B (Homo sapiens) (UniProt Q96GD4); test: Disruption of mitotic localization of AURKB in human RPE-MYC H2B-GFP cells assessed as proportion of polyploid cells in fully attached cell population at 40 uM measured after 72 hrs by fluorescence high content cell imaging analysis (Rvb <1%)
[12] = target: Aurora kinase B (Homo sapiens) (UniProt Q96GD4); test: Disruption of mitotic localization of AURKB in human RPE-MYC H2B-GFP cells assessed as proportion of polyploid cells in fully attached cell population at 10 uM measured after 72 hrs by fluorescence high content cell imaging analysis (Rvb <1%)
[13] = target: T1, Aurora kinase A (Homo sapiens); test: Inhibition of AURKA in human RPE-MYC H2B-GFP cells assessed as inhibition of autophosphorylation of AURKA at Thr288 residue by measuring residual enzyme activity at 20 uM measured after 6 hrs by immunofluorescence staining analysis (reference value: 100 +/-1%)
[14] = target: Aurora kinase B (Homo sapiens) (UniProt Q96GD4); test: Disruption of mitotic localization of AURKB in human RPE-MYC H2B-GFP cells assessed as proportion of polyploid cells in fully attached cell population at 20 uM measured after 72 hrs by fluorescence high content cell imaging analysis (Rvb <1%)

Chain of Aurora kinase B (Homo sapiens) (Q96GD4 whole entry): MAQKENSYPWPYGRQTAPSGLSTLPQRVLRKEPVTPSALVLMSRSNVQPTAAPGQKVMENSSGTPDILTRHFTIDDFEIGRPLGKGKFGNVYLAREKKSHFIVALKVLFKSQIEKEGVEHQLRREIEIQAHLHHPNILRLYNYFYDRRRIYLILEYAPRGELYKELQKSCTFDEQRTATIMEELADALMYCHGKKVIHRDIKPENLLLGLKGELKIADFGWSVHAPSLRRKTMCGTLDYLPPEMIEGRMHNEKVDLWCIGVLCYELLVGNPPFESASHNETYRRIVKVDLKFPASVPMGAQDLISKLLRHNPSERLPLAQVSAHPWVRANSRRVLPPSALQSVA

Compound `Nc1ccc(Oc2ccnc3ccccc23)cc1` has an Activity [1] of 16.2%, an Activity [2] of 115% and an Activity [3] of 102%. It also gave an Activity [4] of 15.6%, an Activity [5] of 15.6% and an Activity [6] of 104%. The Activity [7] was 105%, the MEC [8] was 10 µM and the Activity [9] was 106%. It also gave an MEC [10] of 10 µM, an Activity [11] of 100% and an Activity [12] of 100%. The Activity [13] was 109% and the Activity [14] was 100%.
